Publication PMC10380868, “Trapa bispinosa Roxb. Pericarp Extract Exerts 5α-Reductase Inhibitory Activity in Castrated Benign Prostatic Hyperplasia Model Mice” (International Journal of Molecular Sciences, 2023)

Tests used:
5αR = settings: cited from earlier work
castrated BPH model mice = experiment: Castrated benign prostatic hyperplasia (BPH) mouse model; format: in vivo; settings: for testosterone-induced increase in seminal gland weight / testosterone-induced increase in ventral prostate size, length and width: 0.08% Fin, 1% TBE or 2% EA in drinking water, testosterone i.p. daily
5α-reductase (5αR) = molecular target: T1, 5α-reductase (5αR) (Rattus norvegicus, UniProt P24008); experiment: 5αR activity assay (S9 rat liver homogenate, residual testosterone by HPLC); format: biochemical; settings: cell-free system
T1 sequence (P24008 1-259): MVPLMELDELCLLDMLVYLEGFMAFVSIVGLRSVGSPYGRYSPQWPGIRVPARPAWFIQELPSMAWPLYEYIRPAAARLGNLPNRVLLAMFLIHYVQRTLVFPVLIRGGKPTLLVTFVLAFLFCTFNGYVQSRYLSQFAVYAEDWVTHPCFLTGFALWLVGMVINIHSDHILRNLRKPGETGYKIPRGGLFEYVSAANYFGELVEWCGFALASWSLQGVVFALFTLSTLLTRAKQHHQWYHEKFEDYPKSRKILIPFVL

[1] = qPCR, prostate and seminal glands

| Compound | inhibition of 5αR (5αR) | testosterone-induced increase in seminal gland weight (castrated BPH model mice) | testosterone-induced increase in ventral prostate size, length and width (castrated BPH model mice) | further results |
| --- | --- | --- | --- | --- |
| 1,2,3,6- or 1,2,4,6-tetra-O-galloyl-D-glucose [TGG] | inhibit 5αR |  |  |  |
| O=c1oc2c(O)c(O)cc3c(=O)oc4c(O)c(O)cc1c4c23 [EA, ellagic acid] |  | negligible effects | negligible effects | inhibition of 5αR activity (5α-reductase (5αR)): weakly inhibited |
| CC(C)(C)NC(=O)[C@H]1CC[C@H]2[C@@H]3CC[C@H]4NC(=O)C=C[C@]4(C)[C@H]3CC[C@]12C [Fin, finasteride] |  | tended to inhibit | tended to inhibit | canalization and lumen formation in prostate gland (castrated BPH model mice; Masson's trichrome histology, 0.08% Fin or 1% TBE): suppressed; prostate basal cell proliferation, BrdU+ cells (castrated BPH model mice; immunohistochemistry, 0.08% Fin or 1% TBE): inhibited cell proliferation; PSA (Klkb1) expression (castrated BPH model mice; [1]): suppressed; TMPRSS2 expression (castrated BPH model mice; [1]): suppressed |
| O=C(O)c1cc(O)c(O)c(O)c1 [GA, gallic acid] |  |  |  | 5αR inhibitory effects (5αR): does not exert 5αR inhibitory effects |
| O=C(O[C@@H]1O[C@@H]2COC(=O)c3cc(O)c(O)c(O)c3-c3c(cc(O)c(O)c3O)C(=O)O[C@H]2[C@H](OC(=O)c2cc(O)c(O)c(O)c2)[C@H]1OC(=O)c1cc(O)c(O)c(O)c1)c1cc(O)c(O)c(O)c1 [eugeniin] | inhibit 5αR |  |  |  |
